Data reported in patent US10752587B2, “Homobispiperidinyl derivatives as liver X receptor beta agonists, compositions and their use” (Merck Sharp & Dohme Corp., priority 2015, dated 2020).

Assays:
[1] = biological target: T1, glutathione-S-transferase (GST) tagged LXRbeta LBD (ligand binding domain) (Homo sapiens, UniProt P55055); experiment: LanthaScreen TR-FRET Liver X Receptor Coactivator Assay, co-activator recruitment to LXRbeta LBD; assay type: biochemical; conditions: for Emax: read-out: LXR beta Activity @ max dose (%); for EC50: potency (Inflection Point, IP), co-activator recruitment to LXRbeta LBD, in relation to T0901317, read-out: LXR beta IP
T1 construct: purchased Invitrogen pv4658.pps
T1 sequence (P55055 222-460 limits assumed): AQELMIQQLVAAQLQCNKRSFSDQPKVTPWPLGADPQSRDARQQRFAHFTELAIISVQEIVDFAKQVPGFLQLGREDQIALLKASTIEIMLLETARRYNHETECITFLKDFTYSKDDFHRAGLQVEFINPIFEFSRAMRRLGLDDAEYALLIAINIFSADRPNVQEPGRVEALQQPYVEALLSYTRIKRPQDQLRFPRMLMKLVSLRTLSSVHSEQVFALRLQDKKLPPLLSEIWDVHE
Outline: (§1)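 LXRα- or LXRβ-LBD protein was added to test compounds, then fluorescein-labelled coactivator peptide plus Tb-anti-GST antibody; after room-temperature incubation, TR-FRET was read. Inflection point (IP) and Emax were expressed relative to the dual agonist reference T0901317.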

[2] = biological target: T2, glutathione-S-transferase (GST) tagged LXRalpha LBD (ligand binding domain) (Homo sapiens, UniProt Q13133); experiment: LanthaScreen TR-FRET Liver X Receptor Coactivator Assay, co-activator recruitment to LXRalpha LBD; assay type: biochemical; conditions: for Emax: read-out: LXR alpha Activity @ max dose (%); for EC50 / LXR alpha IP (nM): potency (Inflection Point, IP), co-activator recruitment to LXRalpha LBD, in relation to T0901317; for EC50: read-out: LXR alpha IP
T2 construct: purchased Invitrogen pv4655
T2 sequence (Q13133 209-447 limits assumed): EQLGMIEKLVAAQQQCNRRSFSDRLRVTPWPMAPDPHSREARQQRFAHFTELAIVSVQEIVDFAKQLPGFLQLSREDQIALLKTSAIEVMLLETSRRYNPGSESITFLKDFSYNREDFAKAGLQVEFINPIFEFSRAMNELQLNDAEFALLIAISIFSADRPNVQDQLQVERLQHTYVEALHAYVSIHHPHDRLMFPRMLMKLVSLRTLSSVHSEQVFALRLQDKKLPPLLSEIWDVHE
Outline: as §1

[3] = efficacy at max dose, in relation to reference dual agonist T0901317

Structure (SMILES)	Emax [1, 3]	EC50 [1]	Emax [2, 3]	EC50 [2]	LXR alpha IP (nM) [2]	LXR beta Activity @ max dose (%) [1, 3]	LXR alpha Activity @ max dose (%) [2, 3]
CN(C)C(=O)c1ccc(N2CCC(CC3CCN(C(=O)C(O)(c4cc(F)cc(F)c4)C(F)(F)F)CC3)CC2)cc1 (stereo not shown) [Example 2-126, 4-[4-({1-[2-(3,5-difluoro-phenyl)-3,3,3-trifluoro-2-hydroxy-propanoyl]piperidin-4-yl}methyl)piperidin-1-yl]-N,N-dimethyl-benzamide]	118%	38 nM	33%	126 nM	–	–	–
CN(C)C(=O)c1ccc(N2CCC(CC3CCN(C(=O)[C@@](O)(c4ccccc4)C(F)(F)F)CC3)CC2)cc1 [Example 2-127, N,N-dimethyl-4-[4-({1-[(2S)-3,3,3-trifluoro-2-hydroxy-2-phenyl-propanoyl]piperidin-4-yl}methyl)piperidin-1-yl]benzamide]	68%	877 nM	9%	–	NO IP	–	–
CN(C)C(=O)c1ccc(N2CCC(CC3CCN(C(=O)[C@](O)(c4ccccc4)C(F)(F)F)CC3)CC2)cc1 [Example 2-128, N,N-dimethyl-4-[4-({1-[(2R)-3,3,3-trifluoro-2-hydroxy-2-phenyl-propanoyl]piperidin-4-yl}methyl)piperidin-1-yl]benzamide]	73%	58 nM	34%	1040 nM	–	–	–
Cc1cccc([C@@](O)(C(=O)N2CCC(CC3CCN(c4ccc(C(=O)N(C)C)cc4)CC3)CC2)C(F)(F)F)c1 [Example 2-129, N,N-dimethyl-4-[4-({1-[(2R)-3,3,3-trifluoro-2-hydroxy-2-(3-methylphenyl)propanoyl]piperidin-4-yl}methyl)piperidin-1-yl]benzamide]	51%	51 nM	5%	–	NO IP	–	–
COc1cccc([C@@](O)(C(=O)N2CCC(CC3CCN(c4ccc(C(=O)N(C)C)cc4)CC3)CC2)C(F)F)c1 [Example 2-130, 4-[4-({1-[(2R)-3,3-difluoro-2-hydroxy-2-(3-methoxy-phenyl)propanoyl]piperidin-4-yl}methyl)piperidin-1-yl]-N,N-dimethyl-benzamide]	31%	191 nM	0%	–	NO IP	–	–
CN(C)C(=O)c1ccc(N2CCC(CC3CCN(C(=O)[C@](O)(c4cccc(Cl)c4)C(F)(F)F)CC3)CC2)cc1 [Example 2-131, 4-[4-({1-[(2R)-2-(3-chloro-phenyl)-3,3,3-trifluoro-2-hydroxy-propanoyl]piperidin-4-yl}methyl)piperidin-1-yl]-N,N-dimethyl-benzamide]	59%	53 nM	10%	–	NO IP	–	–
COc1cccc([C@@](O)(C(=O)N2CCC(CC3CCN(c4ccc(C(=O)N(C)C)cc4)CC3)CC2)C(F)(F)F)c1 [Example 2-132, N,N-dimethyl-4-[4-({1-[(2R)-3,3,3-trifluoro-2-hydroxy-2-(3-methoxyphenyl)propanoyl]piperidin-4-yl}methyl)piperidin-1-yl]benzamide]	–	51 nM	–	–	NO IP	49%	7%
CN(C)C(=O)c1ccc(N2CCC(CC3CCN(C(=O)[C@](O)(c4cc(Cl)cc(Cl)c4)C(F)(F)F)CC3)CC2)cc1 [Example 2-133, 4-[4-({1-[(2R)-2-(3,5-dichloro-phenyl)-3,3,3-trifluoro-2-hydroxy-propanoyl]piperidin-4-yl}methyl)piperidin-1-yl]-N,N-dimethyl-benzamide]	54%	36 nM	6%	–	NO IP	–	–
CN(C)C(=O)c1ccc(N2CCC(CC3CCN(C(=O)[C@](O)(c4cccc(OC(F)F)c4)C(F)(F)F)CC3)CC2)cc1 [Example 2-134, 4-{4-[(1-{(2R)-2-[3-(difluoro-methoxy)phenyl]-3,3,3-trifluoro-2-hydroxy-propanoyl}piperidin-4-yl)methyl]piperidin-1-yl}-N,N-dimethyl-benzamide]	67%	120 nM	18%	1980 nM	–	–	–
CC(C)Oc1cccc([C@@](O)(C(=O)N2CCC(CC3CCN(c4ccc(C(=O)N(C)C)cc4)CC3)CC2)C(F)(F)F)c1 [Example 2-135, N,N-dimethyl-4-{4-[(1-{(2R)-3,3,3-trifluoro-2-hydroxy-2-[3-(1-methylethoxy)phenyl]propanoyl}piperidin-4-yl)methyl]piperidin-1-yl}benzamide]	63%	44 nM	3%	–	NO IP	–	–
CN(C)C(=O)c1ccc(N2CCC(CC3CCN(C(=O)[C@](O)(c4cccc(C(F)(F)F)c4)C(F)(F)F)CC3)CC2)cc1 [Example 2-136, N,N-dimethyl-4-{4-[(1-{(2R)-3,3,3-trifluoro-2-hydroxy-2-[3-(trifluoromethyl)phenyl]propanoyl}piperidin-4-yl)methyl]piperidin-1-yl}benzamide]	64%	69 nM	20%	714 nM	–	–	–
COc1cc(F)cc([C@@](O)(C(=O)N2CCC(CC3CCN(c4ccc(C(=O)N(C)C)cc4)CC3)CC2)C(F)(F)F)c1 [Example 2-137, N,N-dimethyl-4-[4-({1-[(2R)-3,3,3-trifluoro-2-(3-fluoro-5-methoxyphenyl)-2-hydroxy-propanoyl]piperidin-4-yl}methyl)piperidin-1-yl]benzamide]	78%	30 nM	15%	–	NO IP	–	–
COc1cc(Cl)cc([C@@](O)(C(=O)N2CCC(CC3CCN(c4ccc(C(=O)N(C)C)cc4)CC3)CC2)C(F)(F)F)c1 [Example 2-138, 4-[4-({1-[(2R)-2-(3-chloro-5-methoxyphenyl)-3,3,3-trifluoro-2-hydroxy-propanoyl]piperidin-4-yl}methyl)piperidin-1-yl]-N,N-dimethyl-benzamide]	35%	74 nM	0%	–	NO IP	–	–
CN(C)C(=O)c1ccc(N2CCC(CC3CCN(C(=O)[C@](O)(c4cc(F)cc(Cl)c4)C(F)(F)F)CC3)CC2)cc1 [Example 2-139, 4-[4-({1-[(2R)-2-(3-chloro-5-fluorophenyl)-3,3,3-trifluoro-2-hydroxy-propanoyl]piperidin-4-yl}methyl)piperidin-1-yl]-N,N-dimethyl-benzamide]	95%	14 nM	36%	266 nM	–	–	–
CN(C)C(=O)c1ccc(N2CCC(CC3CCN(C(=O)[C@](O)(c4ccccc4)C(F)(F)C(F)(F)F)CC3)CC2)cc1 [Example 2-140, N,N-dimethyl-4-[4-({1-[(2R)-3,3,4,4,4-pentafluoro-2-hydroxy-2-phenylbutanoyl]piperidin-4-yl}methyl)piperidin-1-yl]benzamide]	118%	84 nM	43%	836 nM	–	–	–
CCc1cccc([C@@](O)(C(=O)N2CCC(CC3CCN(c4ccc(C(=O)N(C)C)cc4)CC3)CC2)C(F)(F)F)c1 [Example 2-141, 4-[4-({1-[(2R)-2-(3-ethyl-phenyl)-3,3,3-trifluoro-2-hydroxy-propanoyl]piperidin-4-yl}methyl)piperidin-1-yl]-N,N-dimethyl-benzamide]	51%	74 nM	12%	–	NO IP	–	–
